# In US3975389A, “Caffeine derivatives” (priority 1973, dated 1976):
# Columns and labels:
# [1] = acute toxicity, mouse; conditions: in vivo
# Source text: (§1) o) compound dissolved in physiological salt solution.
# (§2) x) compound suspended in 5% arabic gum.
# [2] = acute toxicity, guinea-pig; conditions: in vivo
# Source text: as §1, §2
# [3] = system: bronchial spasm caused by a broncho-constrictor aerosol of histamine hydrochloride; assay: broncholitic activity in the awake guinea-pig: percentage protection against bronchial spasm caused by histamine hydrochloride aerosol; format: in vivo
# [4] = survival / late mortality of guinea-pigs treated in the broncholitic activity test (48 hours, oral route); conditions: guinea pig, in vivo, po
# [5] = strengthening of the andiogenic convulsions test in the mouse; format: in vivo; conditions: in vivo, ip, intraperitoneal dose of 50 mg/kg, read-out: death of treated animals
# Source text: (§3) The undesired action on the central nervous system has been evaluated with the strengthening of the andiogenic convulsions test in the mouse (Werboff et coll., Amer. J. Physiol., 201, 830, 1961). As is well known, the theophilline derivatives potentiate the effects of the acoustic stimulus (motory agitation, clonic and tonic convulsions which may lead to the death of the animals).
# [6] = system: effects of the acoustic stimulus (motory agitation, clonic and tonic convulsions); assay: as above; format: in vivo; conditions: intraperitoneal dose of 50 mg/kg
# Source text: as §3
# [7] = bronchial asthma therapy; known for the comparison compound; cited from earlier work
# [8] = system: guinea-pigs; assay: survival / late mortality of guinea-pigs treated in the broncholitic activity test (48 hours, oral route); conditions: in words; tardy mortality
# [9] = ip, dissolved in physiological salt solution
# [10] = po, per os, suspended in 5% arabic gum
# [11] = i.p. route, 25 mg/kg, after 30' of the administration
# [12] = i.p. route, 50 mg/kg, after 30' of the administration
# [13] = i.p. route, 75 mg/kg, after 30' of the administration
# [14] = oral route, 75 mg/kg, after 60' of the administration
# [15] = oral route, 150 mg/kg, after 60' of the administration
# [16] = oral route, 300 mg/kg, after 60' of the administration
SMILES,"LD50 [1, 9]","LD50 [1, 10]","Protection percentage from the spasm caused by histamine [3, 11]","Protection percentage from the spasm caused by histamine [3, 12]","Protection percentage from the spasm caused by histamine [3, 13]","Protection percentage from the spasm caused by histamine [3, 14]","Protection percentage from the spasm caused by histamine [3, 15]","Protection percentage from the spasm caused by histamine [3, 16]",survival at 48 h ([4]; 75 mg/kg),survival at 48 h ([4]; 150 mg/kg),survival at 48 h ([4]; 300 mg/kg),further results
"Cc1ccnc(C)c1C(=O)OC(C)c1nc2c(c(=O)n(C)c(=O)n2C)n1C (stereo not drawn) [8-[α-(2,4-dimethylnicotinoyloxy)-ethyl]-caffeine]",320 mg/kg,500 mg/kg,–,–,–,–,–,–,–,–,–,–
CC(OC(=O)c1cccnc1)c1nc2c(c(=O)n(C)c(=O)n2C)n1C (stereo not drawn) [8-[α-(nicotinoyloxy)-ethyl]-caffeine],445 mg/kg,520 mg/kg,–,–,–,–,–,–,–,–,–,"LD50 [2, 9]: 220 mg/kg; LD50 [2, 10]: 440 mg/kg"
"CC(OC(=O)c1cccnc1)c1nc2c(c(=O)n(C)c(=O)n2C)n1C.Cl (stereo not drawn) [386/770, 8-[α-(nicotinoyloxy)-ethyl]-caffeine monohydrochloride]",–,–,35%,38%,94%,13%,26%,65%,100%,100%,100%,–
"Cc1ccnc(C)c1C(=O)OC(C)c1nc2c(c(=O)n(C)c(=O)n2C)n1C.Cl (stereo not drawn) [386/986, 8-[α-(2,4-dimethylnicotinoyloxy)-ethyl]-caffeine monohydrochloride]",–,–,22%,39%,85%,39%,54%,80%,100%,100%,100%,–
"Cn1c(=O)c2[nH]cnc2n(C)c1=O [Aminophilline, reference compound]",–,–,–,24%,80%,31%,95%,–,–,–,–,"Protection percentage from the spasm caused by histamine ([3]; i.p. route, 100 mg/kg, after 30' of the administration): 100%; Protection percentage from the spasm caused by histamine ([3]; i.p. route, 150 mg/kg, after 30' of the administration): 100%; Protection percentage from the spasm caused by histamine ([3]; oral route, 50 mg/kg, after 60' of the administration): 14%; Protection percentage from the spasm caused by histamine ([3]; oral route, 100 mg/kg, after 60' of the administration): 92%; mortality [5]: 50%; strengthening of the effects of the acoustic stimulus [6]: remarkable strengthening of the effects of the acoustic stimulus; undesired secondary effects [7]: excitement caused by caffeine and irritation of the gastric mucous membrane; mortality of guinea-pigs subjected to the broncholitic activity test [8]: tardy high mortality"
